The values below come from patent US20250073206A1, “SOLID FORMS OF […] […] USES THEREOF” (Sensorium Therapeutics, Inc., priority 2021, published 2025).

Data set [1] in a line: Approximate solubility by visual observation at 25° C. Format: physicochemical. To be noted: thermodynamic from solid. As to the method:
About 5 mg of batch 1 was weighed into a 2 mL glass vial and aliquots of 20 μL of each solvent were added to get a clear solution. Max. volume of each solvent added was 1 mL.

Data set [2] deals with sodium-dependent serotonin transporter (SERT) (Homo sapiens, UniProt P31645). To be noted: naturally occurring, from Sceletium tortuosum; cited from earlier work.
sodium-dependent serotonin transporter (SERT), sequence (P31645 whole entry, species assumed): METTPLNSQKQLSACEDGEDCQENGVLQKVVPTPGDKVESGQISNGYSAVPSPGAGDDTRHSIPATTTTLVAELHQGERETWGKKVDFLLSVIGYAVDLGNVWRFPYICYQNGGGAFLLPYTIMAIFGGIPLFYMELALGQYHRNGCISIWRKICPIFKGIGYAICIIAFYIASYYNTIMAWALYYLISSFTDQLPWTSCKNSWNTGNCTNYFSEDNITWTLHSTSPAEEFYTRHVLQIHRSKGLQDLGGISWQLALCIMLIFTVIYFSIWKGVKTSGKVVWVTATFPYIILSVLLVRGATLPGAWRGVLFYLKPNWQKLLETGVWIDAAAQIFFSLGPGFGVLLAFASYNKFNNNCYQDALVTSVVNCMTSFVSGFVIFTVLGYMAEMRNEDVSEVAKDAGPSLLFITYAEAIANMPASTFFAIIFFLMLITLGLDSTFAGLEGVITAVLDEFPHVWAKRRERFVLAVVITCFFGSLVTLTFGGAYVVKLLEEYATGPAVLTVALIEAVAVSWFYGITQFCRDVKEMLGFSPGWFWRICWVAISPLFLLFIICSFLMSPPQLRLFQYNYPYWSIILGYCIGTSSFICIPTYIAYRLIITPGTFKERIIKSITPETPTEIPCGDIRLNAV

The term solubility denotes how much of the substance goes into solution per volume.

SMILES strings stand for the structures. In brackets after ≈: the same amount, converted by molar mass.

`COc1ccc([C@@]23CCC(=O)C[C@@H]2N(C)CC3)cc1OC` [(−) mesembrine, 3a-(3,4-dimethoxyphenyl)-octahydro-1-methyl-6H-indol-6-one]: the solubility in data set [1] (organic solvent or mixture, Acetone) lay in the range of 125 to 250 mg/mL (≈ 432 to 864 mM); in data set [1] (organic solvent or mixture, Acetonitrile) it was 125 to 250 mg/mL (≈ 432 to 864 mM); in data set [1] (organic solvent or mixture, Dichloromethane) it was 125 to 250 mg/mL (≈ 432 to 864 mM); in data set [1] (organic solvent or mixture, Ethanol) it was 125 to 250 mg/mL (≈ 432 to 864 mM); in data set [1] (organic solvent or mixture, Ethyl acetate), 125 to 250 mg/mL (≈ 432 to 864 mM); in data set [1] (organic solvent or mixture, Methanol), 125 to 250 mg/mL (≈ 432 to 864 mM). Also, the solubility in data set [1] (organic solvent or mixture, Tetrahydrofuran) was in the range of 125 to 250 mg/mL (≈ 432 to 864 mM); in data set [1] (organic solvent or mixture, Toluene), 7 to 10 mg/mL (≈ 24.2 to 34.6 mM); in data set [1] (organic solvent or mixture, t-Butyl methyl ether), 125 to 250 mg/mL (≈ 432 to 864 mM); in data set [1] (Water) it was 125 to 250 mg/mL (≈ 432 to 864 mM). Also, the “serotonin (5-HT) uptake inhibitory activity” value in data set [2] is listed as “serotonin (5-HT) uptake inhibitory activity”.
